Assay results from the supplement of paper PMC10331698.
± gives the standard deviation of the averaged measurements.

What was measured:
Assay in all cases: level (log10 ratio to DMSO vehicle control); higher = higher biomarker level / cell amount than vehicle control
Conditions in all cases: in DMSO
[1] = compound: C=C(C)C(=O)OCC(F)(F)C(F)(F)C(F)(F)C(F)(F)C(F)(F)C(F)(F)C(F)(F)F
Experimental: (§1)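 BioMAP Diversity Plus panel of 12 human primary cell co-culture systems (3C, 4H, LPS, SAg, BT, BF4T, BE3C, CASM3C, HDF3CGF, KF3CT, MyoF, Mphg). Compounds were added 1 h before stimulation and left for 24 h (MyoF 48 h; BT 72 h for soluble read-outs or 6 d for IgG). Biomarkers were read by ELISA, cytotoxicity by SRB, PBMC viability and proliferation by Alamar Blue. Each well value was divided by the mean of 8 DMSO control wells on the same plate and log10 transformed; duplicate blinded samples were tested at 4 concentrations.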

[2] = compound: FC(F)(F)C(F)(F)C(F)(F)C(F)(F)C(F)(F)C(F)(F)C(F)(F)CCI [1-Iodo-1H,1H,2H,2H-perfluorononane]
Experimental: as §1

[3] = compound: O=C(O)C(F)(F)C(F)(F)C(F)(F)C(F)(F)C(F)(F)C(F)(F)C(F)(F)C(F)(F)Cl [9-Chloro-perfluorononanoic acid]
Experimental: as §1

Perfluorohexanoic acid = compound: O=C(O)C(F)(F)C(F)(F)C(F)(F)C(F)(F)C(F)(F)F [Perfluorohexanoic acid]
Experimental: as §1

[4] = compound: O=P(O)(O)CCC(F)(F)C(F)(F)C(F)(F)C(F)(F)C(F)(F)C(F)(F)C(F)(F)C(F)(F)F [((Perfluorooctyl)ethyl)phosphonic acid]
Experimental: as §1

[5] = compound: O=S(=O)(O)C(F)(F)C(F)(F)C(F)(F)C(F)(F)C(F)(F)C(F)(F)C(F)(F)C(F)(F)F [Perfluorooctanesulfonic acid]
Experimental: as §1

1H,1H-Heptafluorobutanol = compound: OCC(F)(F)C(F)(F)C(F)(F)F [1H,1H-Heptafluorobutanol]
Experimental: as §1

Test System | level (log10) ([1]; 6700 nM) | level (log10) ([1]; 20000 nM) | level (log10) ([2]; 6700 nM) | level (log10) ([2]; 20000 nM) | level (log10) ([3]; 6700 nM) | level (log10) ([3]; 20000 nM) | level (log10) (Perfluorohexanoic acid; 6700 nM) | level (log10) (Perfluorohexanoic acid; 20000 nM) | level (log10) (Perfluorohexanoic acid; 60000 nM) | level (log10) ([4]; 6700 nM) | level (log10) ([4]; 20000 nM) | level (log10) ([4]; 60000 nM) | level (log10) ([5]; 6700 nM) | level (log10) ([5]; 20000 nM) | level (log10) ([5]; 60000 nM) | level (log10) (1H,1H-Heptafluorobutanol; 6700 nM) | level (log10) (1H,1H-Heptafluorobutanol; 20000 nM) | level (log10) (1H,1H-Heptafluorobutanol; 60000 nM)
BF4T:MMP-9 | 0.015 ± 0.0071 | 0.0165 ± 0.005 | 0.007 ± 0.044 | -0.0065 ± 0.028 | -0.0395 ± 0.036 | -0.0715 ± 0.019 | 0.0215 ± 0.0035 | -0.01 ± 0.027 | 0.0215 ± 0.018 | -0.014 ± 0.0014 | -0.014 ± 0.011 | 0.0305 ± 0.021 | 0.02 ± 0.0028 | 0.033 ± 0.0099 | 0.019 ± 0.095 | -0.03 ± 0.038 | -0.001 ± 0.011 | -0.0145 ± 0.0021
BF4T:PAI-I | 0.0195 ± 0.022 | 0.0135 ± 0.019 | -0.0005 ± 0.013 | -0.013 ± 0.011 | -0.027 ± 0.0042 | -0.052 ± 0.0028 | 0.011 | 0.004 ± 0.0028 | 0.0145 ± 0.0064 | 0.003 ± 0.0042 | 0.0055 ± 0.011 | 0.016 ± 0.021 | -0.002 ± 0.0085 | -0.0135 ± 0.0021 | -0.02 ± 0.052 | -0.015 ± 0.0042 | -0.009 | 0.0025 ± 0.028
BF4T:SRB | 0.0005 ± 0.0078 | -0.005 ± 0.011 | -0.001 ± 0.0042 | 0.001 ± 0.0042 | -0.013 ± 0.0071 | -0.0555 ± 0.0064 | -0.0025 ± 0.00071 | -0.0095 ± 0.0092 | 0.0105 ± 0.0064 | -0.008 ± 0.0028 | -0.009 ± 0.0014 | -0.0045 ± 0.0078 | -0.0095 ± 0.0092 | -0.0115 ± 0.0021 | -0.0015 ± 0.026 | 0.004 ± 0.017 | -0.0075 ± 0.0078 | 0.009 ± 0.017
BF4T:tPA | 0.0085 ± 0.0035 | -0.0115 ± 0.021 | 0.0185 ± 0.0064 | -0.0135 ± 0.0064 | -0.075 ± 0.0099 | -0.098 ± 0.0099 | -0.0045 ± 0.0064 | -0.0035 ± 0.019 | 0.0055 ± 0.013 | 0.0055 ± 0.013 | 0.0645 ± 0.005 | 0.072 ± 0.054 | 0.0135 ± 0.013 | -0.0175 ± 0.00071 | 0.0195 ± 0.018 | -0.0205 ± 0.00071 | -0.009 ± 0.013 | 0.0155 ± 0.037
BF4T:uPA | 0.0015 ± 0.032 | -0.0055 ± 0.005 | -0.011 ± 0.035 | -0.012 ± 0.033 | -0.0045 ± 0.012 | -0.01 ± 0.0071 | 0.01 ± 0.0028 | 0.004 | 0.0105 ± 0.0078 | 0.008 ± 0.0085 | 0.0185 ± 0.018 | 0.0205 ± 0.057 | 0.0005 ± 0.016 | 0.0175 ± 0.00071 | 0.0375 ± 0.023 | -0.002 ± 0.0071 | -0.019 ± 0.011 | -0.009 ± 0.011
BT:B cell Proliferation | -0.005 ± 0.021 | 0.0115 ± 0.0078 | 0.0135 ± 0.029 | 0.0045 ± 0.015 | 0.04 ± 0.038 | 0.037 ± 0.017 | -0.047 ± 0.048 | -0.0035 ± 0.042 | 0.0275 ± 0.063 | 0.014 ± 0.021 | -0.0325 ± 0.044 | -0.136 ± 0.058 | 0.0245 ± 0.0092 | 0.0375 ± 0.0092 | 0.0635 ± 0.035 | 0.0265 ± 0.0078 | -0.0155 ± 0.026 | -0.016 ± 0.075
BT:PBMC Cytotoxicity | 0.0145 ± 0.025 | 0.0105 ± 0.029 | 0.0115 ± 0.0035 | 0.0115 ± 0.011 | 0.015 ± 0.028 | 0.0355 ± 0.015 | -0.024 ± 0.028 | -0.0405 ± 0.028 | 0.004 ± 0.0057 | 0.0055 ± 0.00071 | 0 ± 0.0057 | 0.0095 ± 0.015 | 0.0295 ± 0.0064 | 0.038 ± 0.016 | 0.078 ± 0.047 | 0.0095 ± 0.026 | -0.015 ± 0.0099 | 0.0105 ± 0.015
BT:Secreted IgG | 0.021 ± 0.055 | 0.024 ± 0.013 | -0.0075 ± 0.06 | 0.0115 ± 0.074 | 0.0065 ± 0.06 | 0.0175 ± 0.011 | 0.0085 ± 0.00071 | 0.0155 ± 0.03 | -0.023 ± 0.061 | 0.001 ± 0.02 | 0.0005 ± 0.0035 | -0.02 ± 0.0057 | -0.0005 ± 0.0078 | 0.0025 ± 0.021 | -0.0315 ± 0.016 | 0.0305 ± 0.0078 | 0.0055 ± 0.053 | 0.027 ± 0.023
BT:sIL-2 | 0.012 ± 0.0099 | 0.0075 ± 0.047 | 0.0055 ± 0.0035 | -0.0045 ± 0.019 | -0.0175 ± 0.066 | -0.0565 ± 0.1 | -0.0225 ± 0.0064 | 0.0345 ± 0.098 | 0.0275 ± 0.074 | 0.0065 ± 0.036 | 0.067 ± 0.069 | -0.107 ± 0.22 | 0.0065 ± 0.0078 | -0.0215 ± 0.044 | 0.014 ± 0.027 | -0.0065 ± 0.077 | -0.0265 ± 0.011 | 0.0365 ± 0.029
BT:sIL-6 | 0.016 ± 0.0057 | -0.019 ± 0.059 | 0.009 ± 0.017 | -0.0575 ± 0.042 | 0.0155 ± 0.022 | 0.0135 ± 0.018 | -0.0375 ± 0.079 | 0.013 ± 0.062 | -0.037 ± 0.021 | 0.045 ± 0.0014 | 0.0645 ± 0.035 | -0.019 ± 0.055 | 0.0325 ± 0.06 | -0.0415 ± 0.046 | -0.0185 ± 0.039 | 0.006 ± 0.044 | 0.049 ± 0.0071 | 0.0385 ± 0.043
BT:sIL-17A | 0.0535 ± 0.073 | -0.0375 ± 0.22 | 0.0035 ± 0.1 | -0.0305 ± 0.15 | 0.015 ± 0.054 | 0.008 ± 0.047 | 0.009 ± 0.22 | 0.038 ± 0.075 | -0.086 ± 0.068 | 0.0985 ± 0.00071 | 0.132 ± 0.044 | 0.0985 ± 0.083 | 0.13 ± 0.18 | 0.106 ± 0.098 | 0.0295 ± 0.025 | -0.145 ± 0.19 | -0.166 ± 0.005 | -0.0935 ± 0.25
BT:sIL-17F | 0.0315 ± 0.0035 | -0.0245 ± 0.063 | 0.062 ± 0.023 | 0.0585 ± 0.011 | -0.0055 ± 0.074 | 0.011 ± 0.024 | -0.081 ± 0.0014 | -0.002 ± 0.081 | -0.047 ± 0.031 | -0.094 ± 0.081 | 0.035 ± 0.025 | -0.0045 ± 0.088 | -0.064 ± 0.14 | -0.0825 ± 0.059 | -0.009 ± 0.018 | -0.007 ± 0.035 | -0.0425 ± 0.29 | -0.0385 ± 0.032
BT:sTNF-alpha | -0.042 ± 0.0099 | -0.0145 ± 0.013 | 0.018 ± 0.054 | 0.063 ± 0.12 | 0.0075 ± 0.011 | 0.0075 ± 0.022 | -0.036 ± 0.05 | -0.023 ± 0.081 | -0.01 ± 0.11 | -0.019 ± 0.013 | -0.0175 ± 0.15 | -0.211 ± 0.39 | -0.047 ± 0.095 | -0.0585 ± 0.054 | 0.0105 ± 0.079 | 0.078 ± 0.055 | 0.0915 ± 0.057 | 0.011 ± 0.083
LPS:CCL2/MCP-1 | 0.007 ± 0.0071 | 0.017 ± 0.0085 | -0.008 ± 0.016 | 0.0145 ± 0.04 | 0.005 ± 0.038 | 0.006 ± 0.0028 | -0.0035 ± 0.00071 | -0.008 ± 0.027 | -0.0045 ± 0.018 | -0.0075 ± 0.005 | -0.0255 ± 0.0092 | -0.046 ± 0.016 | 0.0025 ± 0.00071 | 0.005 ± 0.021 | 0.0075 ± 0.005 | -0.0125 ± 0.018 | -0.0055 ± 0.0035 | -0.001 ± 0.017
LPS:CD40 | -0.03 ± 0.024 | -0.0145 ± 0.021 | -0.0105 ± 0.019 | 0.034 ± 0.025 | 0.02 ± 0.064 | 0.055 ± 0.0071 | 0.041 ± 0.096 | 0.038 ± 0.13 | 0.0215 ± 0.14 | -0.042 ± 0.041 | -0.0535 ± 0.00071 | -0.148 ± 0.0035 | -0.018 | -0.0345 ± 0.022 | -0.076 ± 0.073 | 0.056 ± 0.023 | 0.0345 ± 0.0064 | 0.0045 ± 0.049
LPS:CD62E/E-Selectin | -0.021 ± 0.018 | 0.0025 ± 0.0035 | -0.003 ± 0.027 | -0.0175 ± 0.057 | -0.0095 ± 0.033 | 0.034 ± 0.0057 | -0.01 ± 0.0042 | -0.0065 ± 0.012 | -0.003 ± 0.0028 | 0.0085 ± 0.018 | -0.0145 ± 0.015 | -0.012 ± 0.0057 | -0.002 ± 0.0014 | -0.0055 ± 0.036 | 0.019 ± 0.0028 | 0.0035 ± 0.013 | 0.001 ± 0.013 | -0.0035 ± 0.0092
